Assay: xn = mol fraction of the nth substance listed
Conditions: 323.15 K

CCCCC [pentane] + O=C=O
Conditions	mass density [kg/m3]
9400 kPa, Fluid (supercritical or subcritical phases), x2 = 0.939	522
9410 kPa, Fluid (supercritical or subcritical phases), x2 = 0.916	590
9440 kPa, Fluid (supercritical or subcritical phases), x2 = 0.87	630
9480 kPa, Fluid (supercritical or subcritical phases), x2 = 0.901	601
9510 kPa, Fluid (supercritical or subcritical phases), x2 = 0.939	534
9550 kPa, Fluid (supercritical or subcritical phases), x2 = 0.791	688
9560 kPa, Fluid (supercritical or subcritical phases), x2 = 0.671	726
9600 kPa, Fluid (supercritical or subcritical phases), x2 = 0.901	607
9630 kPa, Fluid (supercritical or subcritical phases), x2 = 0.916	603
9630 kPa, Fluid (supercritical or subcritical phases), x2 = 0.939	545
9670 kPa, Fluid (supercritical or subcritical phases), x2 = 0.87	638
9740 kPa, Fluid (supercritical or subcritical phases), x2 = 0.214	631
9740 kPa, Fluid (supercritical or subcritical phases), x2 = 0.901	613
9790 kPa, Fluid (supercritical or subcritical phases), x2 = 0.939	558
9920 kPa, Fluid (supercritical or subcritical phases), x2 = 0.901	619
9940 kPa, Fluid (supercritical or subcritical phases), x2 = 0.916	615
9970 kPa, Fluid (supercritical or subcritical phases), x2 = 0.939	572
10000 kPa, Fluid (supercritical or subcritical phases), x2 = 0.901	622
10010 kPa, Fluid (supercritical or subcritical phases), x2 = 0.87	645
10080 kPa, Fluid (supercritical or subcritical phases), x2 = 0.901	626
10160 kPa, Fluid (supercritical or subcritical phases), x2 = 0.901	628
10170 kPa, Fluid (supercritical or subcritical phases), x2 = 0.939	586
10240 kPa, Fluid (supercritical or subcritical phases), x2 = 0.36	651
10270 kPa, Fluid (supercritical or subcritical phases), x2 = 0.901	633
10290 kPa, Fluid (supercritical or subcritical phases), x2 = 0.791	697
10300 kPa, Fluid (supercritical or subcritical phases), x2 = 0.916	628
10420 kPa, Fluid (supercritical or subcritical phases), x2 = 0.87	654
10420 kPa, Fluid (supercritical or subcritical phases), x2 = 0.901	637
10440 kPa, Fluid (supercritical or subcritical phases), x2 = 0.939	600
10620 kPa, Fluid (supercritical or subcritical phases), x2 = 0.901	642
10710 kPa, Fluid (supercritical or subcritical phases), x2 = 0.671	734
10730 kPa, Fluid (supercritical or subcritical phases), x2 = 0.916	642
10760 kPa, Fluid (supercritical or subcritical phases), x2 = 0.901	647
10790 kPa, Fluid (supercritical or subcritical phases), x2 = 0.939	616
10850 kPa, Fluid (supercritical or subcritical phases), x2 = 0.87	661
10950 kPa, Fluid (supercritical or subcritical phases), x2 = 0.901	652
11040 kPa, Fluid (supercritical or subcritical phases), x2 = 0.791	703
11060 kPa, Fluid (supercritical or subcritical phases), x2 = 0.214	634
11220 kPa, Fluid (supercritical or subcritical phases), x2 = 0.901	656
11230 kPa, Fluid (supercritical or subcritical phases), x2 = 0.36	654
11250 kPa, Fluid (supercritical or subcritical phases), x2 = 0.939	635
11260 kPa, Fluid (supercritical or subcritical phases), x2 = 0.916	657
11320 kPa, Fluid (supercritical or subcritical phases), x2 = 0.939	639
11440 kPa, Fluid (supercritical or subcritical phases), x2 = 0.901	661
11450 kPa, Fluid (supercritical or subcritical phases), x2 = 0.87	670
11610 kPa, Fluid (supercritical or subcritical phases), x2 = 0.901	666
11890 kPa, Fluid (supercritical or subcritical phases), x2 = 0.901	672
11910 kPa, Fluid (supercritical or subcritical phases), x2 = 0.791	713
11930 kPa, Fluid (supercritical or subcritical phases), x2 = 0.916	672
11970 kPa, Fluid (supercritical or subcritical phases), x2 = 0.87	678
11980 kPa, Fluid (supercritical or subcritical phases), x2 = 0.671	740
12080 kPa, Fluid (supercritical or subcritical phases), x2 = 0.901	675
12440 kPa, Fluid (supercritical or subcritical phases), x2 = 0.901	681
12460 kPa, Fluid (supercritical or subcritical phases), x2 = 0.36	656
12560 kPa, Fluid (supercritical or subcritical phases), x2 = 0.214	638
12580 kPa, Fluid (supercritical or subcritical phases), x2 = 0.87	687
12760 kPa, Fluid (supercritical or subcritical phases), x2 = 0.901	686
12790 kPa, Fluid (supercritical or subcritical phases), x2 = 0.916	687
13000 kPa, Fluid (supercritical or subcritical phases), x2 = 0.901	690
13060 kPa, Fluid (supercritical or subcritical phases), x2 = 0.791	721
13280 kPa, Fluid (supercritical or subcritical phases), x2 = 0.901	695
13290 kPa, Fluid (supercritical or subcritical phases), x2 = 0.87	695
13530 kPa, Fluid (supercritical or subcritical phases), x2 = 0.901	698
13560 kPa, Fluid (supercritical or subcritical phases), x2 = 0.36	659
13800 kPa, Fluid (supercritical or subcritical phases), x2 = 0.671	749
13800 kPa, Fluid (supercritical or subcritical phases), x2 = 0.901	701
13860 kPa, Fluid (supercritical or subcritical phases), x2 = 0.214	640
13860 kPa, Fluid (supercritical or subcritical phases), x2 = 0.916	705
14040 kPa, Fluid (supercritical or subcritical phases), x2 = 0.87	704
14050 kPa, Fluid (supercritical or subcritical phases), x2 = 0.901	705
14440 kPa, Fluid (supercritical or subcritical phases), x2 = 0.901	712
14470 kPa, Fluid (supercritical or subcritical phases), x2 = 0.916	715
14510 kPa, Fluid (supercritical or subcritical phases), x2 = 0.791	732
14700 kPa, Fluid (supercritical or subcritical phases), x2 = 0.901	714
14730 kPa, Fluid (supercritical or subcritical phases), x2 = 0.87	713
14810 kPa, Fluid (supercritical or subcritical phases), x2 = 0.36	662
15220 kPa, Fluid (supercritical or subcritical phases), x2 = 0.214	642
Liquid, Other PVT measurement, x2 = 0.214	603
Liquid, Other PVT measurement, x2 = 0.36	632
Liquid, Other PVT measurement, x2 = 0.671	702
Liquid, Other PVT measurement, x2 = 0.791	651
Liquid, Other PVT measurement, x2 = 0.87	573
Liquid, Other PVT measurement, x2 = 0.901	511
